Measured values reported in ChEMBL document CHEMBL1137632, “Galanin message-associated peptide suppresses growth and the budded-to-hyphal-form transition of Candida albicans” (2007).
Active and inactive are the calls of the source. The calls are words filed in the database; no cut-off is given here.

Tests used:
[1] = tested on: Candida albicans; test: Antifungal activity against Candida albicans SC5314 assessed as inhibition of fungal transformation from budded-to-hyphal-form at 4 uM after 24 hrs by microscopy; type: functional, organism-based
[2] = tested on: Candida albicans; test: Antifungal activity against Candida albicans SC5314 assessed as inhibition of fungal transformation from budded-to-hyphal-form at 2 uM after 24 hrs by microscopy; type: functional, organism-based
[3] = tested on: Candida albicans; test: Antifungal activity against Candida albicans SC5314 assessed as inhibition of fungal transformation from budded-to-hyphal-form at 1 uM after 24 hrs by microscopy; type: functional, organism-based
[4] = tested on: Candida albicans; test: Antifungal activity against Candida albicans K2 at 6.3 uM after 16 hrs by BacTiter-Glow assay; type: functional, organism-based
[5] = tested on: Candida albicans; test: Antifungal activity against Candida albicans SC5314 at 6.3 uM after 16 hrs by BacTiter-Glow assay; type: functional, organism-based
[6] = tested on: Candida albicans; test: Antifungal activity against Candida albicans CBS 5983 at 6.3 uM after 16 hrs by BacTiter-Glow assay; type: functional, organism-based
[7] = tested on: Candida albicans; test: Antifungal activity against Candida albicans clinical isolates at 6.3 uM after 16 hrs by BacTiter-Glow assay; type: functional, organism-based
[8] = tested on: Candida albicans; test: Antifungal activity against Candida albicans K2 at 32 uM after 16 hrs by BacTiter-Glow assay; type: functional, organism-based
[9] = tested on: Candida albicans; test: Antifungal activity against Candida albicans SC5314 at 32 uM after 16 hrs by BacTiter-Glow assay; type: functional, organism-based
[10] = tested on: Candida albicans; test: Antifungal activity against Candida albicans CBS 5983 at 32 uM after 16 hrs by BacTiter-Glow assay; type: functional, organism-based
[11] = tested on: Candida albicans; test: Antifungal activity against Candida albicans clinical isolates at 32 uM after 16 hrs by BacTiter-Glow assay; type: functional, organism-based
[12] = tested on: Candida albicans; test: Antifungal activity against Candida albicans K2 at 4.3 uM after 16 hrs by BacTiter-Glow assay relative to untreated control; type: functional; conditions: pooled result: one value given for 4 cell lines, strains, targets or settings
[13] = tested on: Candida albicans; test: Antifungal activity against Candida albicans K2 at 4.15 uM after 16 hrs by BacTiter-Glow assay relative to untreated control; type: functional
[14] = tested on: Candida albicans; test: Antifungal activity against Candida albicans SC5314 at 4.15 uM after 16 hrs by BacTiter-Glow assay relative to untreated control; type: functional
[15] = tested on: Candida albicans; test: Antifungal activity against Candida albicans CBS 5983 at 4.15 uM after 16 hrs by BacTiter-Glow assay relative to untreated control; type: functional
[16] = tested on: Candida albicans; test: Antifungal activity against Candida albicans clinical isolates at 4.15 uM after 16 hrs by BacTiter-Glow assay relative to untreated control; type: functional
[17] = tested on: Candida albicans; test: Antifungal activity against Candida albicans K2 at 4.1 uM after 16 hrs by BacTiter-Glow assay; type: functional, organism-based
[18] = tested on: Candida albicans; test: Antifungal activity against Candida albicans SC5314 at 4.1 uM after 16 hrs by BacTiter-Glow assay; type: functional, organism-based
[19] = tested on: Candida albicans; test: Antifungal activity against Candida albicans CBS 5983 at 4.1 uM after 16 hrs by BacTiter-Glow assay; type: functional, organism-based
[20] = tested on: Candida albicans; test: Antifungal activity against Candida albicans clinical isolates at 4.1 uM after 16 hrs by BacTiter-Glow assay; type: functional, organism-based
[21] = tested on: Candida albicans; test: Antifungal activity against Candida albicans K2 at 4 uM after 16 hrs by BacTiter-Glow assay; type: functional, organism-based
[22] = tested on: Candida albicans; test: Antifungal activity against Candida albicans SC5314 at 4 uM after 16 hrs by BacTiter-Glow assay; type: functional, organism-based
[23] = tested on: Candida albicans; test: Antifungal activity against Candida albicans CBS 5983 at 4 uM after 16 hrs by BacTiter-Glow assay; type: functional, organism-based
[24] = tested on: Candida albicans; test: Antifungal activity against Candida albicans clinical isolates at 4 uM after 16 hrs by BacTiter-Glow assay; type: functional, organism-based
[25] = tested on: Candida albicans; test: Antifungal activity against Candida albicans K2 at 24.3 uM after 16 hrs by BacTiter-Glow assay; type: functional, organism-based
[26] = tested on: Candida albicans; test: Antifungal activity against Candida albicans SC5314 at 24.3 uM after 16 hrs by BacTiter-Glow assay; type: functional, organism-based
[27] = tested on: Candida albicans; test: Antifungal activity against Candida albicans CBS 5983 at 24.3 uM after 16 hrs by BacTiter-Glow assay; type: functional, organism-based
[28] = tested on: Candida albicans; test: Antifungal activity against Candida albicans clinical isolates at 24.3 uM after 16 hrs by BacTiter-Glow assay; type: functional, organism-based

For CC[C@H](C)[C@H](NC(=O)[C@H](C)NC(=O)CNC(=O)[C@H](C)NC(=O)[C@H](CCC(=O)O)NC(=O)[C@H](CCCCN)NC(=O)[C@H](CC(C)C)NC(=O)[C@H](Cc1cnc[nH]1)NC(=O)[C@H](CC(C)C)NC(=O)[C@H](Cc1ccccc1)NC(=O)[C@H](CO)NC(=O)[C@H](CC(C)C)NC(=O)[C@H](Cc1ccccc1)NC(=O)[C@H](CCC(=O)O)NC(=O)[C@@H](NC(=O)[C@@H](NC(=O)[C@@H](NC(=O)[C@H](CCCNC(=N)N)NC(=O)[C@H](CCSC)NC(=O)[C@@H](NC(=O)[C@H](CC(N)=O)NC(=O)[C@H](CC(N)=O)NC(=O)[C@H](CCC(=O)O)NC(=O)[C@@H]1CCCN1C(=O)[C@@H](NC(=O)[C@H](CO)NC(=O)[C@H](CCCNC(=N)N)NC(=O)[C@H](CC(=O)O)NC(=O)[C@H](Cc1ccccc1)NC(=O)[C@H](CO)NC(=O)CNC(=O)[C@@H]1CCCN1C(=O)[C@H](CCCCN)NC(=O)[C@H](CCSC)NC(=O)[C@H](CC(=O)O)NC(=O)[C@H](CC(=O)O)NC(=O)[C@H](CCC(=O)O)NC(=O)[C@@H]1CCCN1C(=O)[C@H](CCCNC(=N)N)NC(=O)[C@H](CC(C)C)NC(=O)[C@@H](N)CCC(=O)O)[C@@H](C)CC)[C@@H](C)CC)[C@H](C)O)[C@@H](C)CC)[C@@H](C)CC)C(=O)O, which Activity [1] is on record?
The Activity was “Active”.

And the Activity [2]?
The Activity was “Active”.

What about the Activity [3] of the same compound?
Its Activity is “inactive”.

With CC[C@H](C)[C@H](NC(=O)[C@H](C)NC(=O)[C@H](Cc1c[nH]cn1)NC(=O)[C@@H]1CCCN1C(=O)CNC(=O)[C@H](CC(C)C)NC(=O)[C@H](CC(C)C)NC(=O)[C@H](Cc1ccc(O)cc1)NC(=O)CNC(=O)[C@H](C)NC(=O)[C@H](CO)NC(=O)[C@H](CC(N)=O)NC(=O)[C@H](CC(C)C)NC(=O)[C@@H](NC(=O)[C@H](Cc1c[nH]c2ccccc12)NC(=O)CN)[C@@H](C)O)C(=O)N[C@@H](CC(=O)O)C(=O)N[C@@H](CC(N)=O)C(=O)N[C@@H](Cc1c[nH]cn1)C(=O)N[C@@H](CCCNC(=N)N)C(=O)N[C@@H](CO)C(=O)N[C@@H](Cc1ccccc1)C(=O)N[C@@H](Cc1c[nH]cn1)C(=O)N[C@@H](CC(=O)O)C(=O)N[C@@H](CCCCN)C(=O)N[C@@H](Cc1ccc(O)cc1)C(=O)NCC(=O)N[C@@H](CC(C)C)C(=O)N[C@@H](C)C(N)=O as the compound, how does the Activity [4] read?
Its Activity is “inactive”.

What about the Activity [5] of the same compound?
The Activity was “inactive”.

And the Activity [6]?
The Activity was “inactive”.

What about the Activity [7] of the same compound?
Its Activity is “inactive”.

How did the Activity [8] turn out when OC(Cn1cncn1)(Cn1cncn1)c1ccc(F)cc1F was run?
Its Activity is “Active”.

And the Activity [9]?
Its Activity is “Active”.

And the Activity [10]?
Its Activity is “Active”.

What about the Activity [11] of the same compound?
Its Activity is “Active”.

How did the Activity [12] turn out when “H-ELRPEDDMKPGSFDRSIPENNIMRTIIEFLSFLHLKEAGAL-OH” was run?
The Activity was 48.7%.

With “H-GIGKFLHSAGKFGKAFVGEIMKS-OH [MAGAININ I]” as the compound, how does the Activity [13] read?
Its Activity is >90%.

And the Activity [14]?
Its Activity is >90%.

What about the Activity [15] of the same compound?
The Activity was >90%.

What about the Activity [16] of the same compound?
Its Activity is >90%.

H-LQSEDKAIRTIMEFLAFLHLKEAGAL-OH was tested. Which Activity [17] did it give?
The Activity was “Active”.

What about the Activity [18] of the same compound?
The Activity was “Active”.

And the Activity [19]?
Its Activity is “Active”.

What about the Activity [20] of the same compound?
Its Activity is “Active”.

What about the Activity [21] of the same compound?
The Activity was “Active”.

What about the Activity [22] of the same compound?
The Activity was “Active”.

What about the Activity [23] of the same compound?
The Activity was “Active”.

What about the Activity [24] of the same compound?
Its Activity is “Active”.

And the Activity [1]?
Its Activity is “Active”.

H-PENNIMRTIIEFLSFLHLKEAGAL-OH was tested. Which Activity [25] did it give?
The Activity was “inactive”.

What about the Activity [26] of the same compound?
Its Activity is “inactive”.

What about the Activity [27] of the same compound?
The Activity was “inactive”.

What about the Activity [28] of the same compound?
The Activity was “inactive”.

For H-SIPENNIMRTIIEFLSFLHLKEAGAL-OH, which Activity [17] is on record?
Its Activity is “Active”.

What about the Activity [18] of the same compound?
Its Activity is “Active”.

What about the Activity [19] of the same compound?
Its Activity is “Active”.

And the Activity [20]?
The Activity was “Active”.

What about the Activity [21] of the same compound?
Its Activity is “Active”.

And the Activity [22]?
The Activity was “Active”.

What about the Activity [23] of the same compound?
Its Activity is “Active”.

And the Activity [24]?
The Activity was “Active”.

And the Activity [1]?
Its Activity is “Active”.

And the Activity [2]?
The Activity was “Active”.

And the Activity [3]?
The Activity was “inactive”.
